# Assays:
# [1] = target: T1, human HDAC1 (Homo sapiens, UniProt Q13547); assay: Homo sapiens HDAC1 inhibition assay (Fluor-de-Lys, enzymatic); format: biochemical; conditions: human HDAC enzymatic assay; read-out: hHDAC IC50
# T1 construct: made in house; host or cells: HeLa (ATCC CCL-2), mammalian cells
# How it was run: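 Fluorogenic deacetylation read-out: trypsin developer, supplemented with 2 μM final TSA as stop, releases fluorophore from deacetylated substrate.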
# [2] = tested on: Plasmodium falciparum 3D7; assay: P. falciparum growth inhibition assay (Pf-LDH); format: cell-based; conditions: Plasmodium falciparum, Erythrocyte; P. falciparum 3D7 infected erythrocytes, 72 h incubation, PfLDH readout
# How it was run: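 Compounds were tested against 72 h cultures of the 3D7 strain (0.25% parasitemia, 2% hematocrit, 37° C, low-oxygen gas). Parasite growth was quantified as lactate dehydrogenase activity via NBT reduction, absorbance 650 nm, after freezing and thawing.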
# T1 sequence (Q13547 whole entry): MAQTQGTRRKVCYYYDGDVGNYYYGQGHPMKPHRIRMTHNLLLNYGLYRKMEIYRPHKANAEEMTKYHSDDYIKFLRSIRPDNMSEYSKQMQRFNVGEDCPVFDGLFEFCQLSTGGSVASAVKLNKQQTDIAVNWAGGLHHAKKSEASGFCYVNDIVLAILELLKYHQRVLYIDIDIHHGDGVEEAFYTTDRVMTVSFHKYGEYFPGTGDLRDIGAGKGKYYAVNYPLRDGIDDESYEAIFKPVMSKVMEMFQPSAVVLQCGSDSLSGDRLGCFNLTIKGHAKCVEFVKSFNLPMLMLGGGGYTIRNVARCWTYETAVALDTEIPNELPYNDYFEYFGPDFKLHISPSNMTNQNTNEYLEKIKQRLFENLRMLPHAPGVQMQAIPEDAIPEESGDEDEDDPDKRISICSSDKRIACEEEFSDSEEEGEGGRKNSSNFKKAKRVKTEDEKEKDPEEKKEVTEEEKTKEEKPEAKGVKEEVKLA
Compound,IC50 [1],EC50 [2]
"CNC(=O)CCCCC[C@H](NC(=O)Cn1ccnn1)c1ncc(-c2ccc(-c3ccn(C)n3)cc2)[nH]1 [Entry 69, (S)-7-(2-(1H-1,2,3-triazol-1-yl)acetamido)-N-methyl-7-(5-(4-(1-methyl-1H-pyrazol-3-yl)phenyl)-1H-imidazol-2-yl)heptanamide]",> 5 µM,> 5 µM
"CNC(=O)CCCCC[C@H](NC(=O)c1cncs1)c1ncc(-c2cc3cc(OC)ccc3[nH]2)[nH]1 [Entry 54, (S)-N-(1-(5-(5-methoxy-1H-indol-2-yl)-1H-imidazol-2-yl)-7-(methylamino)-7-oxoheptyl)thiazole-5-carboxamide]",1 to 5 µM,1 to 5 µM
CNC(=O)CCCCC[C@H](NC(=O)c1cncs1)c1ncc(-c2ccc3cc(OC)cnc3c2)[nH]1 [Entry 14],1 to 5 µM,1 to 5 µM
"CNC(=O)CCCCC[C@H](NC(=O)C1CN(C)C1)c1ncc(-c2cc3ccccc3nc2OC)o1 [Entry 71, (S)-N-(1-(5-(2-methoxyquinolin-3-yl)oxazol-2-yl)-7-(methylamino)-7-oxoheptyl)-1-methylazetidine-3-carboxamide]",< 1 µM,< 1 µM
"CNC(=O)CCCCC[C@H](NC(=O)CCn1ccnc1)c1ncc(-c2cc3ccccc3nc2OC)[nH]1 [Entry 27, (S)-7-(3-(1H-imidazol-1-yl)propanamido)-7-(5-(2-methoxyquinolin-3-yl)-1H-imidazol-2-yl)-N-methylheptanamide]",1 to 5 µM,1 to 5 µM
CNC(=O)CCCCC[C@H](NC(=O)Cc1nc(-c2ccccc2)cs1)c1ncc(-c2ccc3ccccc3c2)[nH]1 [Entry 63],1 to 5 µM,1 to 5 µM
"CNC(=O)CCCCC[C@H](NC(=O)C12CCN(CC1)CC2)c1ncc(-c2ccc3cc(OC)ccc3c2)[nH]1 [Entry 153, (S)-N-(1-(5-(6-methoxynaphthalen-2-yl)-1H-imidazol-2-yl)-7-(methylamino)-7-oxo-heptyl)quinuclidine-4-carboxamide]",< 1 µM,< 1 µM
"CCOc1cccc2cc(-c3cnc([C@H](CCCCCC(=O)NC)NC(=O)c4cncs4)[nH]3)ccc12 [Entry 25, (S)-N-(1-(5-(5-ethoxynaphthalen-2-yl)-1H-imidazol-2-yl)-7-(methylamino)-7-oxoheptyl)thiazole-5-carboxamide]",1 to 5 µM,< 1 µM
"CNC(=O)CCCCC[C@H](NC(=O)c1ccc(N2CC(=O)NC2=O)cc1)c1ncc(-c2ccc3ccccc3c2)[nH]1 [Entry 41, (S)-4-(2,4-dioxoimidazolidin-1-yl)-N-(7-(methylamino)-1-(5-(naphthalen-2-yl)-1H-imidazol-2-yl)-7-oxo-heptyl)benzamide]",1 to 5 µM,< 1 µM
"CNC(=O)CCCCC[C@H](NC(=O)OCc1ccccc1)c1ncc(-c2ccc3ccncc3c2)[nH]1 [Entry 93, (S)-benzyl (1-(5-(isoquinolin-7-yl)-1H-imidazol-2-yl)-7-(methylamino)-7-oxoheptyl)carbamate]",< 1 µM,< 1 µM
CNC(=O)CCCCC[C@H](NC(=O)c1csc(-c2cccnc2)n1)c1ncc(-c2cc3ccccc3nc2OC)[nH]1 [Entry 30],> 5 µM,1 to 5 µM
"CNC(=O)CCCCC[C@H](NC(=O)c1cncs1)c1ncc(-c2cnc3ccccc3c2)[nH]1 [Entry 36, (S)-N-(7-(methylamino)-7-oxo-1-(5-(quinolin-3-yl)-1H-imidazol-2-yl)heptyl)thiazole-5-carboxamide]",1 to 5 µM,< 1 µM
"CNC(=O)CCCCC[C@H](NC(=O)Cc1cnc2ccccn12)c1ncc(-c2ccc3ccncc3c2)[nH]1 [Entry 15, (S)-7-(2-(imidazo[1,2-a]pyridin-3-yl)acetamido)-7-(5-(isoquinolin-7-yl)-1H-imidazol-2-yl)-N-methylheptanamide]",< 1 µM,1 to 5 µM
CNC(=O)CCCCC[C@H](NC(=O)c1cncs1)c1ncc(-c2cccc3c2OCCO3)[nH]1 [Entry 79],1 to 5 µM,> 5 µM
"CCc1nc2ccccc2n1CCC(=O)N[C@@H](CCCCCC(=O)NC)c1ncc(-c2cc3ccccc3nc2OC)[nH]1 [Entry 8, (S)-7-(3-(2-ethyl-1H-benzo[d]imidazol-1-yl)propanamido)-7-(5-(2-methoxyquinolin-3-yl)-1H-imidazol-2-yl)-N-methylheptanamide]",< 1 µM,1 to 5 µM

# The remaining lines, values ahead:
IC50 [1],EC50 [2],Compound
> 5 µM,> 5 µM,"CNC(=O)CCCCC[C@H](NC(=O)c1cncs1)c1ncc(-c2ccc(Cl)c(Cl)c2)[nH]1 [Entry 129, (S)-N-(1-(5-(3,4-dichlorophenyl)-1H-imidazol-2-yl)-7-(methylamino)-7-oxoheptyl)thiazole-5-carboxamide]"
> 5 µM,1 to 5 µM,"CNC(=O)CCCCC[C@H](NC(=O)c1cncs1)c1ncc(-c2ccc(-c3ccn(C)n3)cc2)o1 [Entry 222, (S)-N-(1-(5-(4-(1-methyl-1H-pyrazol-3-yl)phenyl)oxazol-2-yl)-7-(methylamino)-7-oxoheptyl)thiazole-5-carboxamide]"
1 to 5 µM,1 to 5 µM,"CNC(=O)CCCCC[C@H](NC(=O)c1cncs1)c1ncc(-c2cccc3ccoc23)[nH]1 [Entry 147, (S)-N-(1-(5-(benzofuran-7-yl)-1H-imidazol-2-yl)-7-(methylamino)-7-oxoheptyl)thiazole-5-carboxamide]"
> 5 µM,> 5 µM,"CNC(=O)CCCCC[C@H](NC(=O)c1cncs1)c1ncc(-c2cnc3[nH]ncc3c2)[nH]1 [Entry 159, (S)-N-(1-(5-(1H-pyrazolo[3,4-b]pyridin-5-yl)-1H-imidazol-2-yl)-7-(methylamino)-7-oxoheptyl)thiazole-5-carboxamide]"
1 to 5 µM,1 to 5 µM,CNC(=O)CCCCC[C@H](NC(=O)CCc1nnc(C)[nH]1)c1ncc(-c2ccc3ccncc3c2)[nH]1 [Entry 167]
< 1 µM,< 1 µM,CNC(=O)CCCCC[C@H](NS(=O)(=O)c1ccc(C#N)cc1)c1ncc(-c2cc3ccccc3nc2OC)[nH]1 [Entry 220]
1 to 5 µM,< 1 µM,"CNC(=O)CCCCC[C@H](NC(=O)c1cncs1)c1ncc(-c2ccc3[nH]ncc3c2)[nH]1 [Entry 160, (S)-N-(1-(5-(1H-indazol-5-yl)-1H-imidazol-2-yl)-7-(methylamino)-7-oxoheptyl)thiazole-5-carboxamide]"
< 1 µM,1 to 5 µM,CNC(=O)CCCCC[C@H](NC(=O)CCN1CCN(C)CC1)c1ncc(-c2cc3ccccc3nc2OC)[nH]1 [Entry 131]
< 1 µM,1 to 5 µM,"CCN1CCCC(C(=O)N[C@@H](CCCCCC(=O)NC)c2ncc(-c3ccc4ccccc4c3)[nH]2)C1 (stereo partly drawn) [Entry 176, 1-ethyl-N-((S)-7-(methylamino)-1-(5-(naphthalen-2-yl)-1H-imidazol-2-yl)-7-oxo-heptyl)piperidine-3-carboxamide]"
1 to 5 µM,1 to 5 µM,"CNC(=O)CCCCC[C@H](NC(=O)CCn1cncn1)c1ncc(-c2cc3ccccc3nc2OC)[nH]1 [Entry 180, (S)-7-(3-(1H-1,2,4-triazol-1-yl)propanamido)-7-(5-(2-methoxyquinolin-3-yl)-1H-imidazol-2-yl)-N-methyl-heptanamide]"
> 5 µM,> 5 µM,"CNC(=O)CCCCC[C@H](NC(=O)c1nc[nH]n1)c1ncc(-c2cc3ccccc3nc2OC)[nH]1 [Entry 102, (S)-N-(1-(5-(2-methoxyquinolin-3-yl)-1H-imidazol-2-yl)-7-(methylamino)-7-oxoheptyl)-1H-1,2,4-triazole-3-carboxamide]"
> 5 µM,> 5 µM,"CNC(=O)CCCCC[C@H](NC(=O)[C@@H]1CCCN1C)c1ncc(-c2cc3ccccc3nc2OC)[nH]1 [Entry 104, (S)-N-((S)-1-(5-(2-methoxyquinolin-3-yl)-1H-imidazol-2-yl)-7-(methylamino)-7-oxoheptyl)-1-methylpyrrolidine-2-carboxamide]"
> 5 µM,> 5 µM,"CNC(=O)CCCCC[C@H](NC(=O)c1cn2ccccc2n1)c1ncc(-c2ccc3ccccc3c2)[nH]1 [Entry 144, (S)-N-(7-(methylamino)-1-(5-(naphthalen-2-yl)-1H-imidazol-2-yl)-7-oxo-heptyl)imidazo[1,2-a]pyridine-2-carboxamide]"
1 to 5 µM,1 to 5 µM,"CNC(=O)CCCCC[C@H](NC(=O)c1cncs1)c1ncc(-c2ccc(-c3ccccc3)s2)[nH]1 [Entry 205, (S)-N-(7-(methylamino)-7-oxo-1-(5-(5-phenylthiophen-2-yl)-1H-imidazol-2-yl)heptyl)thiazole-5-carboxamide]"
> 5 µM,> 5 µM,"CNC(=O)CCCCC[C@H](NC(=O)Cn1ccnn1)c1ncc(-c2ccc3[nH]ncc3c2)[nH]1 [Entry 157, (S)-7-(2-(1H-1,2,3-triazol-1-yl)acetamido)-7-(5-(1H-indazol-5-yl)-1H-imidazol-2-yl)-N-methyl-heptanamide]"
> 5 µM,1 to 5 µM,CNC(=O)CCCCC[C@H](NC(=O)CCc1cnn(C)c1)c1ncc(-c2cc3ccccc3nc2OC)[nH]1 [Entry 134]
< 1 µM,1 to 5 µM,"CNC(=O)CCCCC[C@H](NC(=O)Cn1cc2ccccc2n1)c1ncc(-c2ccc(-c3ccn(C)n3)cc2)[nH]1 [Entry 169, (S)-7-(2-(2H-indazol-2-yl)acetamido)-N-methyl-7-(5-(4-(1-methyl-1H-pyrazol-3-yl)phenyl)-1H-imidazol-2-yl)heptanamide]"
1 to 5 µM,1 to 5 µM,"CNC(=O)CCCCC[C@H](NC(=O)C1CN(C)C1)c1ncc(-c2cc3ccccc3nc2OC)[nH]1 [Entry 98, (S)-N-(1-(5-(2-methoxyquinolin-3-yl)-1H-imidazol-2-yl)-7-(methylamino)-7-oxoheptyl)-1-methylazetidine-3-carboxamide]"

# — patent US9365541B2, “Compounds for use in the treatment of parasitic diseases” (IRBM—SCIENCE PARK S.P.A., priority 2012, dated 2016)
